Measurements reported in patent US20260007639A1, “COMPOUNDS FOR THE TREATMENT OF NEUROMUSCULAR DISORDERS” (NMD PHARMA A/S, priority 2017, published 2026).

Experiments:
[1] = tested on: rat soleus muscles; test: Recovery of force in isolated rat soleus nerve-muscle preparations after 115 nM tubocurarine, 50 μM compound (Table 8); details: 40 mins exposure
Description: Force traces from a representative muscle stimulated to contract in 1) control condition before addition of neuromuscular blocking agent, 2) the force response to stimulation after 90 minutes incubation with Tubocurarine. […] The traces presented in FIG. 12A (1, 2, 3), correspond to the dotted lines in FIG. 12B, respectively.
Recovery of force is quantified as the percentage of the force prior to tubocurarine that is recovered by the compound.
The current invention relates to compounds that inhibit CIC-1 ion channels and increase muscle excitability and thereby improve muscle function in clinical conditions where muscle activation is failing. Such conditions result in loss of contractile function of skeletal muscle, weakness and excessive fatigue. In this series of experiments the compounds were tested for their ability to restore contractile function of isolated rat muscle when the neuromuscular transmission had been compromised akin to neuromuscular disorders.
Experimentally, soleus muscles from 4-5 wk old rats were isolated with the motor nerve remaining attached. The nerve-muscle preparations were mounted in experimental setups that enabled electrical stimulation of the motor nerve. Stimulation of the motor nerve led to activation of the muscle fibres and ensuing force production that was recorded.
After mounting the nerve-muscle preparation in the experimental setup, the contractile function of the muscle was initially assessed under the control conditions (FIG. 2A). […] The experimental condition mimics the failing neuromuscular transmission in a range of neuromuscular disorders. After addition of tubocurarine the contractile force declined over the next 90 mins to 10-50% of the control force. 50 μM of the test compound was then added and the contractile force recovered despite the continued presence of tubocurarine. To quantify the ability of the compound to restore force the percentage of the initial force that was restored was determined after 40 mins of compound exposure (FIG. 2B) and the point increase is reported in Table 8.

[2] = tested on: female Lewis rats; test: In situ isometric hindlimb force in anaesthetised rats with neuromuscular transmission partially inhibited by Cisatracurium; type: in vivo, rat; details: 80 Hz stimulation, Cisatracurium infusion
Description: Isometric hindlimb force was measured in 12-week old female Lewis rats in the presence and absence of compound.
Rats were placed under anesthesia with isoflurane (2-4%), intubated and subsequently connected to a micro ventilator (Microvent 1, Hallowell EMC, US). Two stimulation electrodes were inserted through the skin to stimulate the sciatic nerve. A small incision was made proximal to the ankle, to expose the Achilles tendon, which was tied by cotton string, and connected to a force transducer (Fort250, World Precision Instruments) with adjustable position (Vernier control). The Achilles tendon was then cut distal to the attached cotton string. The rat was placed on a heated pad, and to prevent movement artefacts from contraction of the ankle dorsiflexors, the foot was fixated by tape on a footplate.
Muscle contractile properties were assessed by applying an electrical current (under supramaximal voltage conditions) to the nerve and recording the force generated by the muscle. The muscle was stretched until maximal force was obtained, when assessed by 2 Hz stimulation. Isometric force was measured every 30 seconds at 12 Hz (Twitch), 10 pulses, and at every 5 minutes at 80 Hz (Tetanic) for 1 second (80 pulses). This stimulation pattern was employed throughout the experiment, expect in few cases where 80 Hz stimulation was replaced by 12 Hz (10 pulses). […] When the level of neuromuscular inhibition was stable, the test article was injected i.v. at the chosen concentration. The effect of test article was assessed on its ability to increase force generated from the stimulation pattern applied. The effect was assessed in the ability to increase force per se (tetanic, 80 Hz, stimulation), and the ratio between individual twitch peaks (12 Hz stimulation). The effect was monitored for at least 1 hour after injection of test article. In addition, the time from injection of test article to maximal effect on force (both twitch and tetanic) was noted and the time for the effect to disappear (return to baseline), if possible. When appropriate the infusion of neuromuscular blocking agent was ceased, with the stimulation pattern continued, and the return of force to control levels was monitored. Animals were sacrificed by cervical dislocation while still fully sedated.

[3] = biological target: T1, CIC-1 channels (Rattus norvegicus, UniProt P35524); test: Electrophysiological measurement of compound inhibition of CIC-1 (Gm) in rat soleus muscle fibres: EC50 (Table 7)
T1 sequence (P35524 1-994): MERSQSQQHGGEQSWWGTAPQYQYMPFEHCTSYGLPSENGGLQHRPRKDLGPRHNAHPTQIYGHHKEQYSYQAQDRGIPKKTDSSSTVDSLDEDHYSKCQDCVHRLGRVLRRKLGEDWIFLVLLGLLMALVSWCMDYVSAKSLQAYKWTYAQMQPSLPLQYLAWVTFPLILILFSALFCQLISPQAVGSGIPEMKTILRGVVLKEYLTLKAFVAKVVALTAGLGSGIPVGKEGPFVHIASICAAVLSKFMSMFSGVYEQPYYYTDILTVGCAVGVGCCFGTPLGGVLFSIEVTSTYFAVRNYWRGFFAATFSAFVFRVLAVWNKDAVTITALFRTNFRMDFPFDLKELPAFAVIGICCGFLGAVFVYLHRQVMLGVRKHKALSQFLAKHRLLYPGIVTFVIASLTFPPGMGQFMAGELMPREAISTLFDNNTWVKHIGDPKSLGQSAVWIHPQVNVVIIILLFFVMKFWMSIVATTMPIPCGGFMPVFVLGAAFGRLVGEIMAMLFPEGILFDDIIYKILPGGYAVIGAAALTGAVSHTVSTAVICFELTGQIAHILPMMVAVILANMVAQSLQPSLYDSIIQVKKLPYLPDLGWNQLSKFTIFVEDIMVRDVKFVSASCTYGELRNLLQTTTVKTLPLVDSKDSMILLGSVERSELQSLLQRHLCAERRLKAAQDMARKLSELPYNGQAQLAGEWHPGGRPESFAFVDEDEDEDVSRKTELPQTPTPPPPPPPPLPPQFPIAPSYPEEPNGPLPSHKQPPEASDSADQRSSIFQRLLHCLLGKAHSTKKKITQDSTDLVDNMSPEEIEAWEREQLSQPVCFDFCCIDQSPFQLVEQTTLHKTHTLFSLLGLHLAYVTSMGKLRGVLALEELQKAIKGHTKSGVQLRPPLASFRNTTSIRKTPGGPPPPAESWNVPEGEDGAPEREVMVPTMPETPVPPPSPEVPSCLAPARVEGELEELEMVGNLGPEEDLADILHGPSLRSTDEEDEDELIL

Compound | EC50 [3] [µM] | Point increase (%) of initial force that was restored [1] [%] | average increase in tetanic force ([2]; 40.0 mg/kg i.v.) [%] | average increase in tetanic force ([2]; 24.6 mg/kg i.v.) [%] | average increase in tetanic force ([2]; 49.2 mg/kg i.v.) [%] | average increase in tetanic force ([2]; 44.8 mg/kg i.v.) [%]
C[C@H](Oc1ccc(Cl)cc1-c1ccno1)C(=O)O [Compound A-26, (2S)-2-[4-chloro-2-(1,2-oxazol-5-yl)phenoxy]propanoic acid] | 3.6 | 20 | 33.4 | – | – | –
C[C@H](Oc1cc(F)c(Br)cc1-c1ccon1)C(=O)O [Compound A-44, (2S)-2-[4-bromo-5-fluoro-2-(1,2-oxazol-3-yl)phenoxy]propanoic acid] | 2.9 | 27 | – | 46.2 | – | –
C[C@H](Oc1ccc(Br)cc1-c1csnn1)C(=O)O [Compound A-59, (2S)-2-[4-bromo-2-(1,2,3-thiadiazol-4-yl)phenoxy]propanoic acid] | 5.6 | 20 | – | – | 42.8 | –

The next lines start with results.

EC50 [3] [µM] | Compound | Point increase (%) of initial force that was restored [1] [%] | average increase in tetanic force ([2]; 40.0 mg/kg i.v.) [%] | average increase in tetanic force ([2]; 24.6 mg/kg i.v.) [%] | average increase in tetanic force ([2]; 49.2 mg/kg i.v.) [%] | average increase in tetanic force ([2]; 44.8 mg/kg i.v.) [%]
3.3 | O=C(O)[C@H](CF)Oc1ccc(Br)cc1-c1ccon1 [Compound A-31, (2R)-2-[4-bromo-2-(1,2-oxazol-3-yl)phenoxy]-3-fluoropropanoic acid] | 36 | 34.1 | – | – | –
7.4 | O=C(O)COc1ccc(Br)cc1-c1ccon1 [Compound A-64, 2-[4-bromo-2-(1,2-oxazol-3-yl)phenoxy]acetic acid] | 25 | – | – | – | 57.7
